What was measured:
Settings in all cases: 72 h
[1] = tested on: myeloid leukemia patient primary cells Pat.4; assay: area under dose-response curve (viability, 1 nM-10 uM) (fraction (0-1)); higher = more sensitive
Summary of the method: (§1)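 Thawed mononuclear cells from AML or CML patients were purified on Ficoll and cultured for 72 h in RPMI 1640 with 10% FBS, at 10,000 cells/well, on 384-well plates carrying 70 pre-printed compounds at 1–10,000 nM in five tenfold steps, in duplicate. Viability came from CellTiter-Glo, normalised against DMSO and against 10 μM proteasome inhibitor. Any area under the curve given was derived from log-logistic curve fits in the drc and PharmacoGx R packages, and these fits had four parameters.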

[2] = tested on: myeloid leukemia patient primary cells Pat.10; assay: as above
Summary of the method: as §1

[3] = tested on: myeloid leukemia patient primary cells Pat.2; assay: as above
Summary of the method: as §1

[4] = tested on: myeloid leukemia patient primary cells Pat.5; assay: as above
Summary of the method: as §1

[5] = tested on: myeloid leukemia patient primary cells Pat.14; assay: as above
Summary of the method: as §1

[6] = tested on: myeloid leukemia patient primary cells Pat.7; assay: as above
Summary of the method: as §1

[7] = tested on: myeloid leukemia patient primary cells Pat.1; assay: as above
Summary of the method: as §1

[8] = tested on: myeloid leukemia patient primary cells Pat.8; assay: as above
Summary of the method: as §1

[9] = tested on: myeloid leukemia patient primary cells Pat.9; assay: as above
Summary of the method: as §1

[10] = tested on: myeloid leukemia patient primary cells Pat.13; assay: as above
Summary of the method: as §1

[11] = tested on: myeloid leukemia patient primary cells Pat.15; assay: as above
Summary of the method: as §1

[12] = tested on: myeloid leukemia patient primary cells Pat.3; assay: as above
Summary of the method: as §1

[13] = tested on: myeloid leukemia patient primary cells Pat.12; assay: as above
Summary of the method: as §1

[14] = tested on: myeloid leukemia patient primary cells Pat.11; assay: as above
Summary of the method: as §1

[15] = tested on: myeloid leukemia patient primary cells Pat.6; assay: as above
Summary of the method: as §1

SHI-1 = tested on: SHI-1
Summary of the method: (§2)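 Fifteen myeloid leukaemia cell lines were seeded in RPMI 1640 at a density titrated to the linear growth range. Each line went into 384-well plates with compounds acoustically pre-printed at five tenfold doses from 1 to 10,000 nM, in duplicate, and was incubated for 72 h at 37 °C with 5% CO2. Luminescent ATP viability was normalised to vehicle and to a positive control at 10 µM. The IC50 came from four-parameter log-logistic dose–response fits.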

K-562 = tested on: K-562
Summary of the method: as §2

Mono-Mac-6 = tested on: Mono-Mac-6
Summary of the method: as §2

LAMA-84 = tested on: LAMA-84
Summary of the method: as §2

ML-2 = tested on: ML-2
Summary of the method: as §2

KU-812 = tested on: KU-812
Summary of the method: as §2

BV-173 = tested on: BV-173
Summary of the method: as §2

MOLM-13 = tested on: MOLM-13
Summary of the method: as §2

HEL = tested on: HEL
Summary of the method: as §2

NOMO-1 = tested on: NOMO-1
Summary of the method: as §2

MV4-11 = tested on: MV4-11
Summary of the method: as §2

KG-1 = tested on: KG-1
Summary of the method: as §2

THP-1 = tested on: THP-1
Summary of the method: as §2

HL-60 = tested on: HL-60
Summary of the method: as §2

[16] = tested on: myeloid leukemia patient primary cells Pat.2; assay: cell viability (% survival relative to DMSO control); higher = less cytotoxic
Summary of the method: as §1

[17] = tested on: myeloid leukemia patient primary cells Pat.5; assay: as above
Summary of the method: as §1

[18] = tested on: myeloid leukemia patient primary cells Pat.14; assay: as above
Summary of the method: as §1

[19] = tested on: myeloid leukemia patient primary cells Pat.7; assay: as above
Summary of the method: as §1

[20] = tested on: myeloid leukemia patient primary cells Pat.8; assay: as above
Summary of the method: as §1

[21] = tested on: myeloid leukemia patient primary cells Pat.12; assay: as above
Summary of the method: as §1

[22] = tested on: myeloid leukemia patient primary cells Pat.6; assay: as above
Summary of the method: as §1

CC[C@@]1(O)C(=O)OCc2c1cc1n(c2=O)Cc2cc3c(CN(C)C)c(O)ccc3nc2-1 [Topotecan]
Settings	IC50 (cell viability) [µM]	area under dose-response curve
BV-173	0.0114	–
HEL	0.0333	–
HL-60	0.0225	–
K-562	0.097	–
KG-1	0.0427	–
KU-812	0.0407	–
LAMA-84	0.0654	–
ML-2	0.0245	–
MOLM-13	0.018	–
MV4-11	0.0119	–
Mono-Mac-6	0.0344	–
NOMO-1	0.0405	–
SHI-1	0.024	–
THP-1	0.289	–
[1]	–	0.132
[2]	–	0.507
[3]	–	0.127
[4]	–	0.426
[5]	–	0.231
[6]	–	0.282
[7]	–	0.0609
[8]	–	0.0586
[9]	–	0.245
[10]	–	0.0753
[11]	–	0.225
[12]	–	0.54
[13]	–	0.0406
[14]	–	0.0826
[15]	–	0.147

cell viability [%]
Settings	[16]	[17]	[18]	[19]	[20]	[21]	[22]
1 nM	90.7	91.7	96	80.1	76.3	95.3	> 100
10 nM	92.9	66.1	97	94.3	69.7	97	97.4
100 nM	95.9	53.1	72.4	81.4	93.5	92.1	94.6
1000 nM	72	19.8	58.2	34.7	87.2	93.5	75.1
10000 nM	39.5	0.265	6.19	< 0	27.3	48.3	32.5

O=C1O/C(=C/Br)CCC1c1cccc2ccccc12 (stereo not drawn) [Bromoenol Lactone]
Settings	IC50 (cell viability) [µM]	area under dose-response curve
BV-173	4.15	–
HEL	8.39	–
HL-60	> 10	–
K-562	9.03	–
KG-1	8.59	–
KU-812	5.18	–
LAMA-84	> 10	–
ML-2	> 10	–
MOLM-13	5.36	–
MV4-11	5.73	–
Mono-Mac-6	> 10	–
NOMO-1	3.55	–
SHI-1	> 10	–
THP-1	4.53	–
[1]	–	0.213
[2]	–	0.515
[3]	–	0.0768
[4]	–	0.828
[5]	–	0.324
[6]	–	0.287
[7]	–	0.135
[8]	–	0.0529
[9]	–	0.651
[10]	–	0.0877
[11]	–	0.132
[12]	–	0.447
[13]	–	0.084
[14]	–	0.0656
[15]	–	0.0918

cell viability [%]
Settings	[16]	[17]	[18]	[19]	[20]	[21]	[22]
1 nM	96.5	44.7	78.2	57.6	75.9	100	91.1
10 nM	> 100	34.4	83.5	75.8	91.1	> 100	89.2
100 nM	97.2	7.92	73.9	76.4	70	92.4	> 100
1000 nM	93.6	1.18	21.8	30	81.3	90.9	86
10000 nM	29.4	2.24	< 0	< 0	30	33.9	33.1
